Patent US20250049894A1, “TREATMENT OF NUDT2 MUTATION” (UNIVERSITÉ DE GENÈVE, priority 2021, published 2025)

Tested on: Ap4A-RNA
Experiment: In vitro Ap4A-RNA decapping assay (cap-labelled RNA, thin-layer chromatography)
Assay type: biochemical
Settings: recombinant protein 250 nM to 750 nM, 37° C., 30 min, TLC
Protocol: Briefly, using the Ap4A mixture (ATP and Ap4A) or Ap4A instead of ATP for in vitro transcription by MEGAshortscript™ T7 Transcription Kit (Life technologies; Cat. No. AM1354), we produced a 50 nt RNA. Template is the same as making 50 nt RNA for MEFs transfection. Note that if the mixture is used, this nucleotide mixture (ATP and Ap4A) still has all the components (lysine, inorganic pyrophosphatase etc) added during the Ap4A synthesis. In vitro transcription reaction was carried out at 37° C. for at least 4 h in a 20 μL reaction containing 6 pmol DNA template, 2 μL 10× reaction buffer, 2 μL of nucleotides (75 mM CTP, 75 mM UTP, 75 mM GTP), 2 μL of ATP/Ap4A mixture that we produced above, and 2 μL T7 enzyme mix (MEGAshortscript™ Kit, Life technologies, Cat. No. AM1354). After that, 1 μL TURBO DNase was added and incubated at 37° C. for 15 min to remove the DNA template. Unincorporated nucleotides were removed from the RNA preparation by Microspin G-25 Column (GE Healthcare, Cat. No. 27-5325-01), and the process was repeated twice. The radioactively labelled RNA was separated by 10% urea gel. […]
Decapping reaction products were resolved by PEI-cellulose TLC plates (Merk, Cat. No. 1057250001) and developed in 0.45 M (NH4)2SO4 in a glass chamber at room temperature. […] When required, signals were quantified by ImageQuantTL.

“DCP2 (NUDT20): recombinant untagged mouse DCP2 catalytic core domain (95-260 aa)” was tested, and the Ap4A-RNA decapping activity was “only NUDT2 has Ap4A-RNA decapping activity”.
